The structures appear in SMILES notation.

One data set addresses T1, human GnRH receptors (Homo sapiens, UniProt P30968).
T1 construct: expressed in transfected cells; host or cells: HEK 293
T1 sequence (P30968 1-328): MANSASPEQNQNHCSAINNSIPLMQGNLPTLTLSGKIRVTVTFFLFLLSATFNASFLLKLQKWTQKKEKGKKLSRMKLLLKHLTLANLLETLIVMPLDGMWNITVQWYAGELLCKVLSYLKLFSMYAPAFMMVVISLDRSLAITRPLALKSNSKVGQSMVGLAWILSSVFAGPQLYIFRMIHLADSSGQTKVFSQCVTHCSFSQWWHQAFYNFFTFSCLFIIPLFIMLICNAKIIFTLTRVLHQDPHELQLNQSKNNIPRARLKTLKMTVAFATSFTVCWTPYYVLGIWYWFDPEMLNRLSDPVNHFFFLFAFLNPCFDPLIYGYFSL
The data set can be described thus: Radioligand binding assay: inhibition of binding of 125I-GnRH-A to GnRH receptors (membranes). As to conditions: Human GnRH receptor; competition with 125I-GnRH-A; Ki calculated from IC50 (Cheng et al.). An outline of the steps:
(§1)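 Membranes from HEK 293 expressing mouse or human receptor, or rat pituitaries, incubated 1 h at RT with ~0.04–0.06 nM ¹²⁵I-[des-Gly¹⁰,D-Ala⁶]GnRH ethylamide and competitor (0.1–10,000 nM) in HEPES pH 7.4 with MgCl2, EDTA, BSA. Filtration onto PEI-soaked GF/C filters, scintillation counting; Ki from IC50 by Cheng–Prusoff.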

The target in the next data set is T2, rat GnRH receptor (Rattus norvegicus, UniProt P30969).
T2 construct: rat pituitaries (Pel Freez Biologicals, Rogers, Ark.) are homogenized in buffer A; tissue Pel Freez Biologicals; host or cells: rat pituitaries
T2 sequence (P30969 1-327): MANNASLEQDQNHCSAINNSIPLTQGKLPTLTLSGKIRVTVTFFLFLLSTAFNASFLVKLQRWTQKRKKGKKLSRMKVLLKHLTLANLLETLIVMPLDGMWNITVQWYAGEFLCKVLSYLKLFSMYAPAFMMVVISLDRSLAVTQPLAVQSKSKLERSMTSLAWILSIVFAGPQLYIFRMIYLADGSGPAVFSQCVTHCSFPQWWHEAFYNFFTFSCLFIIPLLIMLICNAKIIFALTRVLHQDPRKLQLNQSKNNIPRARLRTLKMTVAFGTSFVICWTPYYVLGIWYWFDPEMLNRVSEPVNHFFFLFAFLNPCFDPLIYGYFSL
The description is as above. The following applies: competition with 125I-GnRH-A, Ki calculated from IC50 (Cheng et al.). The essentials:
as §1

The next data set concerns the target T3, mouse GnRH receptors (Mus musculus, UniProt Q01776).
T3 construct: expressed in transfected cells; host or cells: HEK 293
T3 sequence (Q01776 1-327): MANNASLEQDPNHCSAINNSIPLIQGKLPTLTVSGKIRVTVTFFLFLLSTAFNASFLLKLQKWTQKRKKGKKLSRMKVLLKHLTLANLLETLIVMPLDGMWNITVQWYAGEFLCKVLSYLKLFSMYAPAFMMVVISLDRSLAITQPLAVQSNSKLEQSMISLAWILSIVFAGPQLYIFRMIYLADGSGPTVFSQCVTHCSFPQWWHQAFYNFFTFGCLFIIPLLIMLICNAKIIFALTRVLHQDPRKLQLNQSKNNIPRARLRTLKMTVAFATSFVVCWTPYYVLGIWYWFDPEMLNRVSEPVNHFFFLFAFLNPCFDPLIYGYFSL
Described as above. As to conditions: Mouse GnRH receptor; competition with 125I-GnRH-A; Ki calculated from IC50 (Cheng et al.). An outline of the steps:
as §1

A short description of data set [1]: In vitro metabolism: disappearance of parent compound in liver microsomes. Format: in vitro ADME. The following applies: human liver microsomes; 5 uM compound, 0.5 mg/ml microsomal protein, 2 mM NADPH, 30 minutes at 37° C. The procedure: (§2) Human, rat, dog, and monkey liver microsomes are isolated by differential centrifugation. Specimens of human liver were obtained from the International Institute for the Advancement of Medicine (Scranton, Pa.). The disappearance of the parent compound is studied in a mixture containing 5 uM compound, 0.5 mg/ml microsomal protein, and 2 mM NADPH in 50 mM K Phosphate buffer, pH 7.4. Samples are incubated for 30 minutes at 37° C. The reaction is terminated by the addition of acetonitrile and compounds analyzed by LC-MS as described above.
Background: Liver microsomes are a subcellular fraction often used to study metabolism.

Data set [2] in a line: In vitro metabolism: disappearance of parent compound in liver microsomes (male rat). Format: in vitro ADME. The following applies: 5 uM compound, 0.5 mg/ml microsomal protein, 2 mM NADPH, 30 minutes at 37° C. The procedure: as §2
Data set [3] can be described thus: Pharmacokinetics in female rats. In kind it is in vivo, rat. The following applies: for FR Fp.o.: AUCp.o./AUCi.v.; for Tmax: rat, plasma, po, dose and vehicle per footnote, read-out: FR Tmax hr. The procedure:
Rats (male or female, 200-225 g) are prepared with indwelling jugular vein cannula as described by Harms et al., Applied Physiol. 36:391-398 (1974), and allowed to recover overnight with free access to the standard vivarium chow and water. […] […] The blood samples are withdrawn at specific times, plasma is immediately separated and compound extracted with ethyl acetate. The samples are analyzed by LC-MS using 30-90% gradient of ACN in 50 mM ammonium acetate.
The pharmacokinetic parameters are calculated using WinNonlin software (Scientific Consulting Inc.). The bioavailability is calculated as AUCp.o./AUCi.v., where AUCp.o. and AUCi.v. are areas under the plasma concentration-time curve after oral and i.v. administration, respectively.

The nature of data set [4]: In vitro metabolism: disappearance of parent compound in liver microsomes (female rat). In kind it is in vitro ADME. The following applies: 5 uM compound, 0.5 mg/ml microsomal protein, 2 mM NADPH, 30 minutes at 37° C. Here is the method: as §2

For `Cc1cc2c(cc1Cc1ccc(C(=O)NNc3cc(C)c4c(C)nn(C)c4n3)o1)C(C)(C)OC2(C)C` [Example E1, 5-[(1,1,3,3,6-pentamethyl-1,3-dihydro-2-benzofuran-5-yl)methyl]-N′-(1,3,4-trimethyl-1H-pyrazolo[3,4-b]pyridin-6-yl)-2-furohydrazide], the Ki at human GnRH receptors was 4.2 nM; on rat GnRH receptor, 9 nM; at mouse GnRH receptors it was 12 nM. For the same molecule, the “Huma % p. 30′” value in data set [1] was 43%. Also, the “Male t % p. 30′” value in data set [2] was found to be 96%. In addition, the “FR Fp.o.” value in data set [3] (10 mg/kg as 5 mg/ml solution in 10% EtOH 10% cremophor 80% saline) came out at 57%^4. The Tmax in data set [3] is 60 min. In addition, the “Fem. t % rem. 30′” value in data set [4] amounted to 27%.
As to `Cc1cc2c(cc1Oc1ccc(C(=O)NNc3cc(C)c4c(C)nn(C)c4n3)o1)C(C)(C)CCC2(C)C` [Example F2], the Ki on human GnRH receptors was 3.3 nM; at rat GnRH receptor, 8.5 nM; on mouse GnRH receptors it was 8.2 nM. For the same molecule, in data set [1], the “Huma % p. 30′” value is recorded as 65%. In addition, in data set [2], the “Male t % p. 30′” value turned out to be 93%. In addition, the “FR Fp.o.” value in data set [3] (10 mg/kg as 5 mg/ml solution in 10% cremophor 90% saline) is given as 8%^3. For the same molecule, the Tmax in data set [3] stood at 30 min. In addition, in data set [4], the “Fem. t % rem. 30′” value is reported as 22%.
As to `Cc1ccc(C(C)(C)C)cc1Cc1ccc(C(=O)NNc2cc(C)c3c(C)nn(C)c3n2)o1` [Example J7, 5-[5-(tert-butyl)-2-methylbenzyl]-N′-(1,3,4-trimethyl-1H-pyrazolo[3,4-b]pyridin-6-yl)-2-furohydrazide], the results for the inhibitory constant (Ki) at human GnRH receptors, on rat GnRH receptor and at mouse GnRH receptors were 35 nM, 20 nM and 50 nM, respectively. Further, the “Huma % p. 30′” value in data set [1] came out at 57%. In addition, the “Male t % p. 30′” value in data set [2] worked out at 89%. For the same molecule, the “FR Fp.o.” value in data set [3] (10 mg/kg as 5 mg/ml solution in 10% DMSO 105 cremophor 80% saline) came to 4%^2. For the same molecule, the Tmax in data set [3] came to 30 min. Further, the “Fem. t % rem. 30′” value in data set [4] was determined as 9%.

The Ki is the equilibrium dissociation constant of an inhibitor or competing ligand from its target. By Tmax is commonly meant the time from dosing to the highest level.

(Values after patent publication US6903132B2, “Non-peptide GnRH agents, pharmaceutical compositions and methods for their use” (Agouron Pharmaceuticals, Inc., priority 2002, dated 2005).)
